Measured values taken from patent US9790233B2, “Compositions and methods of modulating 15-PGDH activity” (CASE WESTERN RESERVE UNIVERSITY, priority 2012, dated 2017).

Columns and labels:
A549 cells [1] = test: Cellular toxicity on A549 cells (CellTiter-Glo); type: cell-based; conditions: 24 hours; concentrations of up to 10 uM
bone marrow = test: Bone marrow analysis of treated C57BL/6J mice; type: in vivo; conditions: IP 5 mg/kg or 20 mg/kg
Text: FIGS. […] Experimental conditions are noted on the figure.

A549 cells [2] = test: PGE2 levels in the medium of IL1-beta stimulated A549 cells; type: cell-based;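 note: PGE2 in the collected culture medium quantified by enzyme immunoassay (ELISA), with data drawn from three independent experiments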
[3] = Survival after whole body irradiation; type: in vivo, C57BL/6J mice
Hepatocyte stability = type: in vitro ADME
Experimental: Time to inhibition refers to the time needed to inhibit the generation of NADH by 15-PGDH from the moment with drug is added into the reaction mix. Delta Tm refers to the shift in melting temperature of recombinant 15-PGDH in the presence of drug (with cofactor NADH also present). Concentration of Full Cell Line Reporter Induction refers to the concentration of drug that needs to be added to reporter cell line to achieve maximal induction of the 15-PGDH-luciferase gene fusion reporter cassette, as measured by luciferase assays. Hepatocyte stability refers to the half-life of compound in the presence of hepatocytes in culture. Toxicity refers to the concentration of compound needed to decrease cell numbers in a cell culture assay.

15-PGDH mRNA = 15-PGDH mRNA levels by real-time PCR; type: cell-based
[4] = Survival following acetaminophen (Tylenol) overdose; type: in vivo, C57BL/6J mice
liver = test: Liver regeneration after partial hepatectomy; type: in vivo, mice
colon = test: Dextran sodium sulfate (DSS) induced colitis; type: in vivo, FVB mice
[5] = tested on: 15-PGDH-luciferase fusion reporter in V9m, LS174T and V503 cells; test: 15-PGDH-luciferase fusion gene reporter induction, stated for the three cell line backgrounds together; type: cell-based; conditions: V9m, LS174T, V503; FIG. 1

CCCC[S+]([O-])c1sc2nc(-c3cccs3)cc(-c3ccccc3)c2c1N (centres unmarked) [SW033291, 2-(butylsulfinyl)-4-phenyl-6-(thiophen-2-yl)thieno[2,3-b]pyridin-3-amine]
effect on CellTitre-Glo levels (A549 cells [1]): No effect on CellTitre-Glo levels
percent of SKL cells (bone marrow): unchanged
rank of PGE2 level in the medium (A549 cells [2]; 100 nM drug, FIG. 44): next highest level of PGE2
PGE2 levels in medium (A549 cells [2]; IL1-beta 23 hours, compound added for the last 5 hours): clear inhibition of 15-PGDH activity
number of mice surviving ([3]; 7 Gy, 5 mg/kg IP daily for 7 doses, Day 5): 3
number of mice surviving ([3]; 7 Gy, Day 6): 3
number of mice surviving ([3]; 7 Gy, Day 7): 3
number of mice surviving ([3]; 7 Gy, Day 8): 3
number of mice surviving ([3]; 7 Gy, Day 9): 3
number of mice surviving ([3]; 7 Gy, Day 10): 3
number of mice surviving ([3]; 7 Gy, Day 11): 3
number of mice surviving ([3]; 7 Gy, Day 12): 3
number of mice surviving ([3]; 7 Gy, Day 13): 3
number of mice surviving ([3]; 7 Gy, Day 14): 3
number of mice surviving ([3]; 7 Gy, Day 15): 3
appearance of surviving mice ([3]; 7 Gy, Day 25 (cell wraps: Looks / Healthy)): Looks
number of mice surviving ([3]; 9 Gy, 5 mg/kg IP daily for 7 doses, Day 5): 3
number of mice surviving ([3]; 9 Gy, Day 6): 3
number of mice surviving ([3]; 9 Gy, Day 7): 3
number of mice surviving ([3]; 9 Gy, Day 8): 3
number of mice surviving ([3]; 9 Gy, Day 9): 3
number of mice surviving ([3]; 9 Gy, Day 10): 3
number of mice surviving ([3]; 9 Gy, Day 11): 3
number of mice surviving ([3]; 9 Gy, Day 12): 2
number of mice surviving ([3]; 9 Gy, Day 13): 2
number of mice surviving ([3]; 9 Gy, Day 14): 1
number of mice surviving ([3]; 9 Gy, Day 15): 0
number of mice surviving ([3]; 11 Gy, 5 mg/kg 1 dose/daily for 7 days, Day 5): 3
number of mice surviving ([3]; 11 Gy, 5 mg/kg 1 dose/daily, continuous every day, Day 5): 3
number of mice surviving ([3]; 11 Gy, 5 mg/kg IP daily for 7 doses, Day 5): 3
number of mice surviving ([3]; 11 Gy, 5 mg/kg, 7 days, 2 dose daily, Day 5): 3
number of mice surviving ([3]; 11 Gy, 1 dose/daily for 7 days, Day 6): 3
number of mice surviving ([3]; 11 Gy, 1 dose/daily for 7 days, Day 7): 3
number of mice surviving ([3]; 11 Gy, 1 dose/daily for 7 days, Day 8): 2
number of mice surviving ([3]; 11 Gy, 1 dose/daily for 7 days, Day 9): 1
number of mice surviving ([3]; 11 Gy, 1 dose/daily for 7 days, Day 10): 0
number of mice surviving ([3]; 11 Gy, 1 dose/daily, continuous every day, Day 6): 3
number of mice surviving ([3]; 11 Gy, 1 dose/daily, continuous every day, Day 7): 3
number of mice surviving ([3]; 11 Gy, 1 dose/daily, continuous every day, Day 8): 3
number of mice surviving ([3]; 11 Gy, 1 dose/daily, continuous every day, Day 9): 2
number of mice surviving ([3]; 11 Gy, 1 dose/daily, continuous every day, Day 10): 0
number of mice surviving ([3]; 11 Gy, 7 days, 2 dose daily, Day 6): 3
number of mice surviving ([3]; 11 Gy, 7 days, 2 dose daily, Day 7): 3
number of mice surviving ([3]; 11 Gy, 7 days, 2 dose daily, Day 8): 3
number of mice surviving ([3]; 11 Gy, 7 days, 2 dose daily, Day 9): 2
number of mice surviving ([3]; 11 Gy, 7 days, 2 dose daily, Day 10): 0
number of mice surviving ([3]; 11 Gy, Table 7, Day 6): 3
number of mice surviving ([3]; 11 Gy, Table 7, Day 7): 3
number of mice surviving ([3]; 11 Gy, Table 7, Day 8): 3
number of mice surviving ([3]; 11 Gy, Table 7, Day 9): 2
number of mice surviving ([3]; 11 Gy, Table 7, Day 10): 0
longer survival than vehicle control, on average ([3]; 11 Gy, any of the dosing schedules): 1 to 2 days
Hepatocyte stability (Hepatocyte stability; Table 4): Stable >
Hepatocyte stability (Hepatocyte stability; half-life in presence of hepatocytes in culture, Table 3): Stable > couple
15-PGDH mRNA levels (real-time PCR) (15-PGDH mRNA; V503 cells): slight increase in 15-PGDH mRNA
15-PGDH mRNA levels (real-time PCR) (15-PGDH mRNA; treated colon cancer cell lines): do not in general alter 15-PGDH mRNA levels
number of mice surviving ([4]; 1 dose/daily, first dose immediately after Tylenol, 24 hrs): 6
number of mice surviving ([4]; 2 dose/daily, first dose immediately after Tylenol, 24 hrs): 6
number of mice surviving ([4]; 2 dose/daily, first dose immediately after Tylenol, 48 hrs): 3
number of mice surviving ([4]; 2 dose/daily, first dose immediately after Tylenol, 64 hrs): 3
number of mice surviving ([4]; 2 dose/daily, first dose immediately after Tylenol, 72 hrs): 3
number of mice surviving ([4]; 2 dose/daily, first dose immediately after Tylenol, 88 hr): 3
number of mice surviving ([4]; 2 dose/daily, first dose immediately after Tylenol, 96 hr): 3
number of mice surviving ([4]; 2 dose/daily, first dose immediately after Tylenol, 112 hr): 3
number of mice surviving ([4]; 2 dose/daily, first dose immediately after Tylenol, 120 hr): 3
number of mice surviving ([4]; acetaminophen 600 mg/kg, 5 mg/kg 1 dose/daily, first dose immediately after Tylenol injection, 16 hr): 6
number of mice surviving ([4]; acetaminophen 600 mg/kg, 5 mg/kg 2 dose/daily, first dose immediately after Tylenol injection, 16 hr): 6
Survival (number of mice) ([4]; acetaminophen 600 mg/kg, 5 mg/kg bid beginning 3 hours prior to acetaminophen, 6 doses, cohort of 6, 16 hr): 6
Survival (number of mice) ([4]; acetaminophen 600 mg/kg, 5 mg/kg bid beginning 48 hours prior to acetaminophen, 9 doses, cohort of 12, 16 hr): 12
mice survived at 120 hours ([4]; bid beginning 3 hours prior to acetaminophen): 3 of 6
Survival (number of mice) ([4]; bid beginning 3 hours prior to acetaminophen, 24 hrs): 5
Survival (number of mice) ([4]; bid beginning 3 hours prior to acetaminophen, 48 hrs): 3
Survival (number of mice) ([4]; bid beginning 3 hours prior to acetaminophen, 64 hrs): 3
Survival (number of mice) ([4]; bid beginning 3 hours prior to acetaminophen, 72 hrs): 3
Survival (number of mice) ([4]; bid beginning 3 hours prior to acetaminophen, 88 hr): 3
Survival (number of mice) ([4]; bid beginning 3 hours prior to acetaminophen, 96 hr): 3
Survival (number of mice) ([4]; bid beginning 3 hours prior to acetaminophen, 112 hr): 3
Survival (number of mice) ([4]; bid beginning 3 hours prior to acetaminophen, 120 hr): 3
mice survived at 120 hours ([4]; bid beginning 48 hours prior to acetaminophen): 10 of 12
Survival (number of mice) ([4]; bid beginning 48 hours prior to acetaminophen, 24 hrs): 12
Survival (number of mice) ([4]; bid beginning 48 hours prior to acetaminophen, 40 hrs): 11
Survival (number of mice) ([4]; bid beginning 48 hours prior to acetaminophen, 48 hrs): 10
Survival (number of mice) ([4]; bid beginning 48 hours prior to acetaminophen, 64 hrs): 10
Survival (number of mice) ([4]; bid beginning 48 hours prior to acetaminophen, 72 hrs): 10
Survival (number of mice) ([4]; bid beginning 48 hours prior to acetaminophen, 88 hr): 10
Survival (number of mice) ([4]; bid beginning 48 hours prior to acetaminophen, 96 hr): 10
Survival (number of mice) ([4]; bid beginning 48 hours prior to acetaminophen, 112 hr): 10
Survival (number of mice) ([4]; bid beginning 48 hours prior to acetaminophen, 120 hr): 10
survival versus control mice ([4]; dosing begun immediately following acetaminophen, once or twice daily): No difference
serum ALT levels (liver; 5 mg/kg IP bid, one mouse versus one control mouse): ALT values are lower
hepatic mitosis versus controls (liver; days 3 and 4): significantly increased hepatic mitosis
BrdU positive (S-phase) cells in liver (liver; post-operative day 2): clear increase in numbers of BrdU positive cells
change from baseline weight versus control (colon; 22 days): greater weight at all time points
ulcer formation prevented (colon; colonoscopy days 8, 11, 15): two-thirds
reduction of length of ulcerated mucosa (colon; day 15): 61%
body weight and colon length versus control (colon; day 22): greater body weight and greater colon lengths
MEICS scores versus control (colon; days 8, 11 and 15): significantly less colitis activity
luciferase activity of cells expressing 15-PGDH luciferase fusion construct [5]: increase luciferase activity
